# According to ChEMBL document CHEMBL1150249, “Antiglioma action of xanthones from Gentiana kochiana: Mechanistic and structure-activity requirements” (Bioorg Med Chem, 2008):
# Calls of active or inactive are those of the source. The rule behind the calls is not given here.
# Legend:
# C6 [1] = assay: Antiproliferative activity against rat C6 cells assessed as cell number after 48 hrs by crystal violet assay; assay type: functional, cell-based; conditions: C6, 48 h
# U-251 [2] = assay: Antiproliferative activity against human U251 cells assessed as cell number after 48 hrs by crystal violet assay; assay type: functional, cell-based; conditions: U-251, 48 h
# [3] = Inhibition of bovine brain tubulin by microtubule depolymerization assay; parameters: species or system Bos taurus
# C6 [4] = assay: Antiproliferative activity against rat C6 cells assessed as mitochondrial dehydrogenase activity after 24 hrs by MTT assay; assay type: functional, cell-based
# [5] = Antiproliferative activity against Albino Oxford rat peritoneal macrophages assessed as cell number after 48 hrs by crystal violet assay; assay type: cell-based; conditions: macrophage
# C6 [6] = assay: Induction of mitochondrial membrane potential depolarization in rat C6 cells assessed as increase in green to red fluorescence ratio at 50 uM after 24 hrs by flow cytometry; assay type: functional, cell-based
# U-251 [7] = assay: Antiproliferative activity against human U251 cells assessed as cell number after 72 hrs by crystal violet assay; assay type: functional, cell-based
# [8] = Antiproliferative activity against Albino Oxford rat primary astrocytes assessed as mitochondrial respiration after 48 hrs by MTT assay; assay type: cell-based; conditions: astrocyte
# C6 [9] = assay: Antiproliferative activity against rat C6 cells assessed as cell number after 24 hrs by crystal violet assay; assay type: functional, cell-based
# C6 [10] = assay: Induction apoptosis in rat C6 cells at 50 uM after 36 hrs by flow cytometry relative to control; assay type: functional
# C6 [11] = assay: Induction necrosis in rat C6 cells at 50 uM after 36 hrs by flow cytometry relative to control; assay type: functional
# C6 [12] = assay: Induction apoptosis in rat C6 cells assessed as caspase activation at 50 uM after 36 hrs by flow cytometry relative to control; assay type: functional
# U-251 [13] = assay: Antiproliferative activity against human U251 cells assessed as cell number after 24 hrs by crystal violet assay; assay type: functional, cell-based
# C6 [14] = assay: Induction of reactive oxygen species production in rat C6 cells at 50 uM after 36 hrs by flow cytometry; assay type: functional, cell-based
# C6 [15] = assay: Induction of apoptosis in rat C6 cells assessed as change in morphology at 50 uM after 48 hrs by bright field microscopy; assay type: functional, cell-based
# [16] = Antiproliferative activity against Albino Oxford rat peritoneal macrophages assessed as mitochondrial respiration after 48 hrs by MTT assay; assay type: cell-based; conditions: macrophage
# [17] = Antiproliferative activity against Albino Oxford rat primary astrocytes assessed as change in morphology by bright field microscopy; assay type: cell-based; conditions: astrocyte
# C6 [18] = assay: Antiproliferative activity against rat C6 cells assessed as mitochondrial dehydrogenase activity after 72 hrs by MTT assay; assay type: functional, cell-based
# U-251 [19] = assay: Antiproliferative activity against human U251 cells assessed as mitochondrial dehydrogenase activity after 24 hrs by MTT assay; assay type: functional, cell-based
# C6 [20] = assay: Antiproliferative activity against rat C6 cells assessed as cell number after 72 hrs by crystal violet assay; assay type: functional, cell-based
# U-251 [21] = assay: Antiproliferative activity against human U251 cells assessed as mitochondrial dehydrogenase activity after 72 hrs by MTT assay; assay type: functional, cell-based
# [22] = Antiproliferative activity against Albino Oxford rat primary astrocytes assessed as cell number after 48 hrs by crystal violet assay; assay type: cell-based; conditions: astrocyte
# C6 [23] = assay: Cell cycle arrest in rat C6 cells assessed as accumulation at G0/G1 phase at 50 uM after 24 hrs by flow cytometry relative to control; assay type: functional
# C6 [24] = assay: Cell cycle arrest in rat C6 cells assessed as accumulation at G2/M phase at 50 uM after 24 hrs by flow cytometry relative to control; assay type: functional
# C6 [25] = assay: Cell cycle arrest in rat C6 cells assessed as accumulation at S phase at 50 uM after 24 hrs by flow cytometry relative to control; assay type: functional
# C6 [26] = assay: Antiproliferative activity against rat C6 cells assessed as caspase activation at 50 uM after 36 hrs by flow cytometry in presence of N-acetyl-cysteine; assay type: functional, cell-based
# C6 [27] = assay: Antiproliferative activity against rat C6 cells assessed as cell number after 48 hrs by crystal violet assay in presence of N-acetyl-cysteine; assay type: functional, cell-based
smiles,measurement,setting,value
COc1cc(O[C@@H]2O[C@H](CO)[C@@H](O)[C@H](O)[C@H]2O)c2c(=O)c3c(OC)c(O)ccc3oc2c1,IC50,C6 [1],> 100 µM
same,IC50,U-251 [2],> 100 µM
COc1cc(O)c2c(=O)c3c(O)ccc(O)c3oc2c1 [BELLIDIFOLIN],IC50,C6 [1],> 100 µM
same,IC50,U-251 [2],> 100 µM
same,IC50,[3],> 50 µM
COc1cc(O)c2c(=O)c3c(OC)c(OC)ccc3oc2c1 [DECUSSATIN],IC50,C6 [1],> 100 µM
same,IC50,U-251 [2],> 100 µM
O=c1c2c(O)cc(O)cc2oc2c(O)ccc(O)c12 [DEMETHYLBELLIDIFOLIN],IC50,C6 [1],> 100 µM
same,IC50,U-251 [2],> 100 µM
same,IC50,[3],> 50 µM
COc1cc(O[C@@H]2O[C@H](CO[C@@H]3OC[C@@H](O)[C@H](O)[C@H]3O)[C@@H](O)[C@H](O)[C@H]2O)c2c(=O)c3c(OC)c(O)ccc3oc2c1 [GENTIABAVAROSIDE],IC50,C6 [1],> 100 µM
same,IC50,U-251 [2],> 100 µM
COc1cc(O)c2c(=O)c3c(O)c(O)ccc3oc2c1 [GENTIAKOCHIANIN],Activity,C6 [4],Active
same,Activity,[5],Non-toxic
same,Activity,C6 [6],Active
same,Activity,U-251 [7],Active
same,Activity,[8],Non-toxic
same,Activity,C6 [9],Active
same,Activity,C6 [10],24.2%
same,Activity,C6 [11],5.9%
same,Activity,C6 [12],19.7%
same,Activity,U-251 [13],Active
same,Activity,C6 [14],Active
same,IC50,C6 [1],31.4 µM
same,IC50,U-251 [2],27.3 µM
same,Activity,C6 [15],Active
same,Activity,[16],Non-toxic
same,Activity,[17],Non-toxic
same,Activity,C6 [18],Active
same,Activity,U-251 [19],Active
same,Activity,C6 [20],Active
same,Activity,U-251 [21],Active
same,Activity,[22],Non-toxic
same,IC50,[3],18 µM
same,Activity,C6 [23],33.7%
same,Activity,C6 [24],52.5%
same,Activity,C6 [25],10.6%
COc1cc(O)c2c(=O)c3c(OC)c(O)ccc3oc2c1 [GETIACAULEIN],Activity,C6 [4],Active
same,Activity,[5],Non-toxic
same,Activity,C6 [6],Active
same,Activity,U-251 [7],Active
same,Activity,[8],Non-toxic
same,Activity,C6 [9],Active
same,Activity,C6 [10],4.5%
same,Activity,C6 [11],5.5%
same,Activity,C6 [12],6%
same,Activity,C6 [26],Active
same,Activity,U-251 [13],Active
same,Activity,C6 [14],Active
same,IC50,C6 [1],56.6 µM
same,IC50,U-251 [2],53.2 µM
same,Activity,[16],Non-toxic
same,Activity,[17],Non-toxic
same,Activity,C6 [18],Active
same,Activity,U-251 [19],Active
same,Activity,C6 [20],Active
same,Activity,U-251 [21],Active
same,Activity,C6 [27],Active
same,Activity,[22],Non-toxic
same,IC50,[3],> 50 µM
same,Activity,C6 [23],73.2%
same,Activity,C6 [24],18.8%
same,Activity,C6 [25],5.8%
COc1cc(O[C@@H]2O[C@H](CO[C@@H]3OC[C@@H](O)[C@H](O)[C@H]3O)[C@@H](O)[C@H](O)[C@H]2O)c2c(=O)c3c(O)c(O)ccc3oc2c1 [ISOGENTIAKOCHIANOSIDE],IC50,C6 [1],> 100 µM
same,IC50,U-251 [2],> 100 µM
CC(=O)O[C@H]1C(=O)[C@@]2(C)[C@H]([C@H](OC(=O)c3ccccc3)[C@]3(O)C[C@H](OC(=O)[C@H](O)[C@@H](NC(=O)c4ccccc4)c4ccccc4)C(C)=C1C3(C)C)[C@]1(OC(C)=O)CO[C@@H]1C[C@@H]2O [PACLITAXEL],IC50,[3],2.4 µM
